pIC50: −log10 of the molar value.
Columns and labels:
[1] = system: fibrosarcoma HT-1080 cells; assay: MTT antiproliferative assay, HT-1080; format: cell-based, human; details: Homo sapiens, HT-1080; MTT assay, 24 h exposure, triplicate; read-out: IC50 HT-1080
Procedure: (§1) The SGC-7901, A549 and HT-1080 cell lines were purchased from the American Type Culture Collection (ATCC, Manassas, VA, USA). […] Briefly, approximately 3 × 10^4 cells were seeded in a 96-well plate. After 24 h of incubation at 37 °C, cells were exposed to compounds of differing concentrations for 24 h. After treatment, cells were washed with 1X PBS followed by addition of 100 µL of 0.05% MTT reagent to each well, followed by incubation for 4 h at 37 °C. After incubation, the supernatant from each well was carefully removed and the formazan crystals were dissolved in 100 µL of DMSO. The colour density was measured spectrophotometrically at 490 nm using a microplate reader (SpectraMax Plus384, Molecular Devices Corp., USA). The data were calculated and plotted as percent viability compared to control.
as §1

[2] = molecular target: T1, highly purified tubulin from porcine brain (Sus scrofa, UniProt P02554); assay: Tubulin polymerization assay; format: biochemical; details: 37 °C; for effect on tubulin polymerization in words: CA-4 0.5-4 µM, 6i 0.1-8.0 µM, paclitaxel 5.0 µM
T1 construct: highly purified tubulin from porcine brain; purchased Cytoskeleton BK011P; host or cells: porcine brain (tissue-purified)
T1 sequence (P02554 whole entry): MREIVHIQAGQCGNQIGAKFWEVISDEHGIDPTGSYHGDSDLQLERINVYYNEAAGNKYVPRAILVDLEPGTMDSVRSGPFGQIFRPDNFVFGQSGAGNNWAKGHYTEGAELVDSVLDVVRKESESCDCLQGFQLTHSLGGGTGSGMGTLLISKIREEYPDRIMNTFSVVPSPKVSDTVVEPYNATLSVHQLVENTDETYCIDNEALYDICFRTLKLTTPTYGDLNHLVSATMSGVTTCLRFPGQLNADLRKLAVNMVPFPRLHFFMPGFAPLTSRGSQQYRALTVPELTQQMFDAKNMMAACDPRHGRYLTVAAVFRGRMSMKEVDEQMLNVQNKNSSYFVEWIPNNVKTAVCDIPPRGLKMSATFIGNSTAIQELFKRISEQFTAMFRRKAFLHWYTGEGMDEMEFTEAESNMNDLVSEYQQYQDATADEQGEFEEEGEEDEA
T1 sequence (P02550 whole entry partner): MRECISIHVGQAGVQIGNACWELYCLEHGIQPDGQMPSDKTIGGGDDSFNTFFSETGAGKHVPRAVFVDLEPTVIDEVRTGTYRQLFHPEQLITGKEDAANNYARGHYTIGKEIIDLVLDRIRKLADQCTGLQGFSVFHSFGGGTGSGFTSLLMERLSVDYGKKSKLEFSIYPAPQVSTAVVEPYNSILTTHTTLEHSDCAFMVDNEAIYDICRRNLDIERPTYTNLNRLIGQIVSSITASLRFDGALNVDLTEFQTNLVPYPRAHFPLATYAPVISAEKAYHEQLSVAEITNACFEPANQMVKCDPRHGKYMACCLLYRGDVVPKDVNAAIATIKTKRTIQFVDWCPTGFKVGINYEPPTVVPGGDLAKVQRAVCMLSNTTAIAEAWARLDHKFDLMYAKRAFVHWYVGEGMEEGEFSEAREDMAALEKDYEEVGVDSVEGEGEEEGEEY
Procedure: This assay uses highly purified tubulin from porcine brain.
The reaction was monitored at 37 °C.
(§2) Tubulin polymerization assay[33] was conducted with reagents as described in the kit manufacturer (Cytoskeleton, Cat.#BK011P) in a 96-well plate. In brief, tubulin was re-suspended in ice-cold G-PEM buffer (80 mM PIPES, 2 mM MgCl2, 0.5 mM EGTA, 1 mM GTP, 20% (v/v) glycerol) and added to wells on a 96-well plate containing the designated concentration of drugs or vehicle. Samples were mixed well, and tubulin assembly was monitored (emission wavelength: 450 ± 20 nm; excitation wavelength: 360 ± 20 nm) at 1 min intervals for 90 min at 37 °C in a SpectraMax 340PC spectrophotometer (Biotek Synergy HT, Winooskin, VT, USA). IC50 values were calculated from data at the 20 min time point using GraphPad Prism software. Experiments were repeated three times.
as §2, with “assay” for “assay[33]”, “450±20” for “450 ± 20”, “360±20” for “360 ± 20”, “timepoint” for “time point”

[3] = system: tubulin network of SGC-7901 cells; assay: Immunofluorescence of tubulin network; format: cell-based, human; details: 2-fold IC50 (0.022 µM), 12 h
Procedure: CA-4 was employed as positive control in this experiment.
Figure 4 Effects of 6i on tubulin network of SGC-7901 cells by immunofluorenscence. […] The left and middle panels represent the tubulin assembly stained with DAPI and FITC and the right panel represents a merge of the corresponding left and middle panels.
The SGC-7901 cells were seeded at a density of 1 × 10^4 per well on a 24-well plate and grown for 24 h. […] Cells in the control group were treated with culture medium. The control and treated cells were fixed with 4% formaldehyde in PBS for 30 min at -20 °C, then washed twice with PBS and permeabilized with 0.1% (v/v) Triton X-100 in PBS for 5 min. Then, the cells were blocked with 3% bovine serum albumin (BSA) in PBS for 30 min. […] The cells were washed with PBS to remove unbound secondary antibody, nucleus was stained with 4,6-diamino-2-phenolindol dihydrochloride (DAPI) and then, immunofluorescence was detected using a fluorescence microscope (Olympus, Tokyo, Japan).
Immunostaining was carried out to detect microtubule associated tubulin protein after exposure to 6i and CA-4. […] The cells were washed with PBS to remove unbound secondary antibody, nucleus was stained with 4,6-diamino-2-phenolindol dihydrochloride (DAPI) and then, immunofluorescence was detected using a fluorescence microscope (Olympus, Tokyo, Japan).

HCT116 = system: HCT116; design: method as in Org. Biomol. Chem. 2005, 3, 2657-2660; details: ref Org. Biomol. Chem. 2005, 3, 2657-2660; cited from earlier work

pIC50 ([2]; data at the 20 min time point, read-out: IC50 of tubulin polymerization inhibition) | melting point [°C] | SMILES | pIC50 [1] | effect on tubulin polymerization in words [2] | effect on microtubule/tubulin network [3] | pIC50 (HCT116)
 |  | COc1ccc(/C=C\c2cc(OC)c(OC)c(OC)c2)cc1O [CA-4, Combretastatin A-4, reference compound] | 7.89 | dose-dependent inhibition of tubulin polymerization | the tubulin network showed a disruption | 7.80
5.80 | 138 to 140 | COc1cccc(-c2nnc3n2N=C(c2ccc(OC)c(N)c2)CS3)c1 [Compound 6i, 3-(3-Methoxyphenyl)-6-(3-amino-4-methoxyphenyl)-7H-[1,2,4]triazolo[3,4-b][1,3,4]thiadiazine] | 7.85 | dose-dependent inhibition of tubulin polymerization | the tubulin network showed a disruption | 
